From paper PMC10673369, “Preliminary SAR of Novel Pleuromutilin–Polyamine Conjugates” (Microorganisms, 2023) come the findings set out here.

For data set [1], the system named is MRSA ATCC 43300. Nature of the data set: MIC, CO-ADD broth microdilution, MRSA. The data set is classed as cell-based, methicillin-resistant S. aureus. The settings on record: Staphylococcus aureus; MRSA ATCC 43300; mean (n = 2); read-out: MIC MRSA. How it is done: (§1) The susceptibility of bacterial strains S. aureus (ATCC 25923), E. coli (ATCC 25922), and P. aeruginosa (ATCC 27853 or PAO1) to antibiotics and compounds was determined using reported protocols. Additional antimicrobial evaluation against MRSA (ATCC 43300), Klebsiella pneumoniae (ATCC 700603), A. baumannii (ATCC 19606), Candida albicans (ATCC 90028), and Cryptococcus neoformans (ATCC 208821) was undertaken at the Community for Open Antimicrobial Drug Discovery at The University of Queensland (Australia) according to their standard protocols as reported previously. […]
(§2) 2.3. Antimicrobial Assays
(§3) The susceptibility of bacterial strains S. aureus (ATCC 25923), E. coli (ATCC 25922), and P. […]
(§4) baumannii (ATCC 19606), Candida albicans (ATCC 90028), and Cryptococcus neoformans (ATCC 208821) was undertaken at the Community for Open Antimicrobial Drug Discovery at The University of Queensland (Australia) according to their standard protocols as reported previously. For antimicrobial assays, the tested strains were cultured in either Luria broth (LB) (In Vitro Technologies, USB75852), nutrient broth (NB) (Becton Dickson, 234000), or MHB at 37 °C overnight. A sample of culture was then diluted 40-fold in fresh MHB and incubated at 37 °C for 1.5−2 h. The compounds were serially diluted 2-fold across the wells of 96-well plates (Corning 3641, non-binding surface), with compound concentrations ranging from 0.015 to 64 µg/ mL, and plated in duplicate. The resultant mid-log phase cultures were diluted to the final concentration of 1 × 10^6 CFU/mL; then, 50 µL was added to each well of the compound-containing plates, giving a final compound concentration range of 0.008 to 32 µg/mL and a cell density of 5 × 10^5 CFU/mL. All plates were then covered and incubated at 37 °C for 18 h. Resazurin was added at 0.001% final concentration to each well and incubated for 2 h before MICs […]
(§5) For C. neoformans, resazurin was added at 0.006% final concentration to each well and incubated for a further 3 h before MICs were determined by measuring […]
(§6) Colistin and vancomycin were used as positive bacterial inhibitor standards for Gram-negative and Gram-positive bacteria, respectively. Fluconazole was used as a positive fungal inhibitor standard for C. albicans and C. neoformans. The antibiotics were provided in […], with 3 above and 3 below its MIC value, and plated into the first 8 wells of column 23 of the 384-well NBS plates. The quality control (QC) of the assays was determined by the antimicrobial controls and the Z'-factor (using positive and negative controls). Each plate was deemed to fulfil the quality criteria (pass QC) if the Z'- […]
(§7) inhibition at their highest concentration, and no growth inhibition at their lowest concentration.
(§8) 2.4. Determination of the MICs of Antibiotics in the Presence of Synergizing Compounds
In general terms: Broth dilution looks for growth in wells or tubes with falling amounts of substance.

Data set [2] deals with human red blood cells. Nature of the data set: Hemolytic assay. Conditions: mean (n = 2). The data set is classed as cell-based. How it is done: Hemolysis assays were conducted using reported protocols (see Supplementary File). […]
Human whole blood was washed three times with three volumes of 0.9% NaCl and then resuspended in the same solution to a concentration of 0.5 x 10^8 cells/mL, as determined by the manual cell count in a Neubauer hemocytometer. The washed cells were then added to the 384-well compound-containing plates for a final volume of 50 µL. After a 10 min shake on a plate shaker, the plates were then incubated for 1 h at 37 °C. After incubation, the plates were centrifuged at 1,000g for 10 min to pellet cells and debris; 25 µL of the supernatant was then transferred to a polystyrene 384-well assay plate. Hemolysis was determined by measuring the supernatant absorbance at […] (OD405). The absorbance was measured using a Tecan M1000 Pro monochromator plate reader. HC10 and HC50 (concentration at 10% and 50% hemolysis, respectively) were calculated by curve fitting the inhibition values vs. log (concentration) using a sigmoidal dose–response function with variable fitting values for the top, bottom, and slope. […]

Data set [3] is described as follows: Cytotoxicity assay, HEK293. The format is cell-based. Conditions: human; HEK293 cells; mean (n = 2); read-out: Cytotoxicity (IC50), concentration of compound at 50% cytotoxicity. How it is done: Cytotoxicity assays were conducted using reported protocols (see Supplementary File). […]
HEK293 cells were counted manually in a Neubauer hemocytometer and plated at a density of 5,000 cells/well into each well of the 384-well plates containing the 25x (2 µL) concentrated compounds [26,27]. The medium used was Dulbecco's modified Eagle’s medium (DMEM), supplemented with 10% fetal bovine serum (FBS). Cells were incubated together with the compounds for 20 h at 37 °C, 5% CO2.
To measure cytotoxicity, 5 µL (equals 100 µM final) of resazurin was added to each well after incubation and incubated for further 3 h at 37 °C with 5% CO2. After the final incubation, fluorescence intensity […]
reader. CC50 values (concentration at 50% cytotoxicity) were calculated by normalizing the fluorescence readout, with 74 µg/mL tamoxifen as negative control (0%) and normal cell growth as positive control (100%). The concentration-dependent percentage cytotoxicity was fitted to a dose–response function (using Pipeline Pilot) and CC50 values were determined. […]

Data set [4] relates to A. baumannii ATCC 19606. Put plainly: MIC, CO-ADD broth microdilution, A. baumannii. The format is cell-based. The settings on record: for MIC: Acinetobacter baumannii, ATCC19606, mean (n = 2). How it is done:
as §1, §2, §3, §4, §5, §6, §7, §8

As to `C=C[C@]1(C)C[C@@H](OC(=O)CNCCCNCCCCCCCCCCNCCCNCC(=O)O[C@@H]2C[C@@](C)(C=C)[C@@H](O)[C@H](C)[C@]34CCC(=O)[C@H]3[C@@]2(C)[C@H](C)CC4)[C@]2(C)[C@H](C)CC[C@]3(CCC(=O)[C@H]32)[C@@H](C)[C@@H]1O.O=C(O)C(F)(F)F.O=C(O)C(F)(F)F.O=C(O)C(F)(F)F.O=C(O)C(F)(F)F` [Compound 9e, N^1,N^1′-(Decane-1,10-diyl)bis(N^3-(2-(((3aR,4R,5R,7S,8S,9R,9aS,12R)-8-hydroxy-4,7,9,12-tetramethyl-3-oxo-7-vinyldecahydro-4,9a-propanocyclopenta [8]annulen-5-yl)oxy)-2-oxoethyl)propane-1,3-diaminium) 2,2,2-trifluoroacetate], the results for the MIC in data set [1] and in data set [4] were at most 0.17 µM and over 21.9 µM, respectively. The “Hemolysis (HC10), concentration of compound at 10% hemolytic activity” value (from here on “Hemolysis (HC10) … at 10% hemolytic activity”) in data set [2] is over 21.9 µM. Also, in data set [3], the IC50 at 20 h was over 21.9 µM.

Consider `C=C[C@]1(C)C[C@@H](OC(=O)CNCCCNCCCCNCCCNCC(=O)O[C@@H]2C[C@@](C)(C=C)[C@@H](O)[C@H](C)[C@]34CCC(=O)[C@H]3[C@@]2(C)[C@H](C)CC4)[C@]2(C)[C@H](C)CC[C@]3(CCC(=O)[C@H]32)[C@@H](C)[C@@H]1O.O=C(O)C(F)(F)F.O=C(O)C(F)(F)F.O=C(O)C(F)(F)F.O=C(O)C(F)(F)F` [Compound 9a, N^1,N^1′-(Butane-1,4-diyl)bis(N^3-(2-(((3aR,4R,5R,7S,8S,9R,9aS,12R)-8-hydroxy-4,7,9,12-tetramethyl-3-oxo-7-vinyldecahydro-4,9a-propanocyclopenta [8]annulen-5-yl)oxy)-2-oxoethyl)propane-1,3-diaminium) 2,2,2-trifluoroacetate], for which the MIC is 23.2 µM in data set [1] and over 23.2 µM in data set [4]. The “Hemolysis (HC10) … at 10% hemolytic activity” value in data set [2] is over 23.2 µM. Moreover, in data set [3], the IC50 at 20 h was over 23.2 µM.

Consider `C=C[C@]1(C)C[C@@H](OC(=O)CNCCCNCCCCCCNCCCNCC(=O)O[C@@H]2C[C@@](C)(C=C)[C@@H](O)[C@H](C)[C@]34CCC(=O)[C@H]3[C@@]2(C)[C@H](C)CC4)[C@]2(C)[C@H](C)CC[C@]3(CCC(=O)[C@H]32)[C@@H](C)[C@@H]1O.O=C(O)C(F)(F)F.O=C(O)C(F)(F)F.O=C(O)C(F)(F)F.O=C(O)C(F)(F)F` [Compound 9b, N^1,N^1′-(Hexane-1,6-diyl)bis(N^3-(2-(((3aR,4R,5R,7S,8S,9R,9aS,12R)-8-hydroxy-4,7,9,12-tetramethyl-3-oxo-7-vinyldecahydro-4,9a-propanocyclopenta [8]annulen-5-yl)oxy)-2-oxoethyl)propane-1,3-diaminium) 2,2,2-trifluoroacetate], for which the MIC was at most 0.18 µM in data set [1] and over 22.7 µM in data set [4]. The “Hemolysis (HC10) … at 10% hemolytic activity” value in data set [2] is over 22.7 µM. Besides, the IC50 at 20 h in data set [3] was over 22.7 µM.

For `C=C[C@]1(C)C[C@@H](OC(=O)CNCCCNCCCCCCCCNCCCNCC(=O)O[C@@H]2C[C@@](C)(C=C)[C@@H](O)[C@H](C)[C@]34CCC(=O)[C@H]3[C@@]2(C)[C@H](C)CC4)[C@]2(C)[C@H](C)CC[C@]3(CCC(=O)[C@H]32)[C@@H](C)[C@@H]1O.O=C(O)C(F)(F)F.O=C(O)C(F)(F)F.O=C(O)C(F)(F)F.O=C(O)C(F)(F)F` [Compound 9d, N^1,N^1′-(Octane-1,8-diyl)bis(N^3-(2-(((3aR,4R,5R,7S,8S,9R,9aS,12R)-8-hydroxy-4,7,9,12-tetramethyl-3-oxo-7-vinyldecahydro-4,9a-propanocyclopenta [8]annulen-5-yl)oxy)-2-oxoethyl)propane-1,3-diaminium) 2,2,2-trifluoroacetate], the MIC is 5.57 µM in data set [1] and over 22.3 µM in data set [4]. Besides, the “Hemolysis (HC10) … at 10% hemolytic activity” value in data set [2] was over 22.3 µM. For the same compound, the IC50 at 20 h in data set [3] was over 22.3 µM.

As to `C=C[C@]1(C)C[C@@H](OC(=O)CNCCCNCCCCCCCCCCCCNCCCNCC(=O)O[C@@H]2C[C@@](C)(C=C)[C@@H](O)[C@H](C)[C@]34CCC(=O)[C@H]3[C@@]2(C)[C@H](C)CC4)[C@]2(C)[C@H](C)CC[C@]3(CCC(=O)[C@H]32)[C@@H](C)[C@@H]1O.O=C(O)C(F)(F)F.O=C(O)C(F)(F)F.O=C(O)C(F)(F)F.O=C(O)C(F)(F)F` [Compound 9f, N^1,N^1′-(Dodecane-1,12-diyl)bis(N^3-(2-(((3aR,4R,5R,7S,8S,9R,9aS,12R)-8-hydroxy-4,7,9,12-tetramethyl-3-oxo-7-vinyldecahydro-4,9a-propanocyclopenta [8]annulen-5-yl)oxy)-2-oxoethyl)propane-1,3-diaminium) 2,2,2-trifluoroacetate], the MIC in data set [1] was at most 0.17 µM; in data set [4], 2.7 µM. Besides, the “Hemolysis (HC10) … at 10% hemolytic activity” value in data set [2] was found to be 13.2 µM. Besides, in data set [3], the IC50 at 20 h was 8.3 µM.

As for `C=C[C@]1(C)C[C@@H](OC(=O)CNCCCNCCCCCCCNCCCNCC(=O)O[C@@H]2C[C@@](C)(C=C)[C@@H](O)[C@H](C)[C@]34CCC(=O)[C@H]3[C@@]2(C)[C@H](C)CC4)[C@]2(C)[C@H](C)CC[C@]3(CCC(=O)[C@H]32)[C@@H](C)[C@@H]1O.O=C(O)C(F)(F)F.O=C(O)C(F)(F)F.O=C(O)C(F)(F)F.O=C(O)C(F)(F)F` [Compound 9c, N^1,N^1′-(Heptane-1,7-diyl)bis(N^3-(2-(((3aR,4R,5R,7S,8S,9R,9aS,12R)-8-hydroxy-4,7,9,12-tetramethyl-3-oxo-7-vinyldecahydro-4,9a-propanocyclopenta [8]annulen-5-yl)oxy)-2-oxoethyl)propane-1,3-diaminium) 2,2,2-trifluoroacetate], the minimum inhibitory concentration (MIC) in data set [1] was at most 0.18 µM; in data set [4], over 22.5 µM. Moreover, in data set [2], the “Hemolysis (HC10) … at 10% hemolytic activity” value is over 22.5 µM. The IC50 at 20 h in data set [3] was over 22.5 µM.

As to `C=C[C@]1(C)C[C@@H](OC(=O)CSCCN(CC)CC)[C@]2(C)[C@H](C)CC[C@]3(CCC(=O)[C@H]32)[C@@H](C)[C@@H]1O` [Compound 2, Tiamulin, reference compound], the MIC in data set [1] was at most 0.51 µM; in data set [4], over 64.8 µM. The “Hemolysis (HC10) … at 10% hemolytic activity” value in data set [2] is over 64.8 µM. In data set [3], the IC50 at 20 h is over 64.8 µM. Also, the “MIC A.b.” value in data set [4] (mean (n = 2)) is on record as “no activity”.

By MIC is commonly meant the lowest concentration that inhibits growth of the organism.
